The values that follow come from patent publication US8962641B2, “Pyrimidine-substituted pyrrolidine derivatives, pharmaceutical compositions and uses thereof” (Boehringer Ingelheim International GmbH, priority 2013, dated 2015).

SMILES strings stand for the structures.

The target of the experiment is human ACC2 (Homo sapiens (Human), UniProt O00763). Nature of the experiment: ACC2 assay (spectrophotometric 384 well assay, NADH-linked kinetic method). In kind it is biochemical. To be noted: hACC2 construct lacking 128 N-terminal amino acids; coupled lactate dehydrogenase/pyruvate kinase reaction, 340 nm, 25° C. A digest of the protocol: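 Baculovirus/insect-cell human ACC2, anion-exchange purified; ADP formation coupled to pyruvate kinase/lactate dehydrogenase, NADH loss followed at 340 nm, 25° C, 15 min. Final 200 μM NADH and acetyl-CoA, 500 uM ATP; vehicle and no-acetyl-CoA wells set 100% and 0%.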
Sequence of human ACC2 (O00763 129-2458): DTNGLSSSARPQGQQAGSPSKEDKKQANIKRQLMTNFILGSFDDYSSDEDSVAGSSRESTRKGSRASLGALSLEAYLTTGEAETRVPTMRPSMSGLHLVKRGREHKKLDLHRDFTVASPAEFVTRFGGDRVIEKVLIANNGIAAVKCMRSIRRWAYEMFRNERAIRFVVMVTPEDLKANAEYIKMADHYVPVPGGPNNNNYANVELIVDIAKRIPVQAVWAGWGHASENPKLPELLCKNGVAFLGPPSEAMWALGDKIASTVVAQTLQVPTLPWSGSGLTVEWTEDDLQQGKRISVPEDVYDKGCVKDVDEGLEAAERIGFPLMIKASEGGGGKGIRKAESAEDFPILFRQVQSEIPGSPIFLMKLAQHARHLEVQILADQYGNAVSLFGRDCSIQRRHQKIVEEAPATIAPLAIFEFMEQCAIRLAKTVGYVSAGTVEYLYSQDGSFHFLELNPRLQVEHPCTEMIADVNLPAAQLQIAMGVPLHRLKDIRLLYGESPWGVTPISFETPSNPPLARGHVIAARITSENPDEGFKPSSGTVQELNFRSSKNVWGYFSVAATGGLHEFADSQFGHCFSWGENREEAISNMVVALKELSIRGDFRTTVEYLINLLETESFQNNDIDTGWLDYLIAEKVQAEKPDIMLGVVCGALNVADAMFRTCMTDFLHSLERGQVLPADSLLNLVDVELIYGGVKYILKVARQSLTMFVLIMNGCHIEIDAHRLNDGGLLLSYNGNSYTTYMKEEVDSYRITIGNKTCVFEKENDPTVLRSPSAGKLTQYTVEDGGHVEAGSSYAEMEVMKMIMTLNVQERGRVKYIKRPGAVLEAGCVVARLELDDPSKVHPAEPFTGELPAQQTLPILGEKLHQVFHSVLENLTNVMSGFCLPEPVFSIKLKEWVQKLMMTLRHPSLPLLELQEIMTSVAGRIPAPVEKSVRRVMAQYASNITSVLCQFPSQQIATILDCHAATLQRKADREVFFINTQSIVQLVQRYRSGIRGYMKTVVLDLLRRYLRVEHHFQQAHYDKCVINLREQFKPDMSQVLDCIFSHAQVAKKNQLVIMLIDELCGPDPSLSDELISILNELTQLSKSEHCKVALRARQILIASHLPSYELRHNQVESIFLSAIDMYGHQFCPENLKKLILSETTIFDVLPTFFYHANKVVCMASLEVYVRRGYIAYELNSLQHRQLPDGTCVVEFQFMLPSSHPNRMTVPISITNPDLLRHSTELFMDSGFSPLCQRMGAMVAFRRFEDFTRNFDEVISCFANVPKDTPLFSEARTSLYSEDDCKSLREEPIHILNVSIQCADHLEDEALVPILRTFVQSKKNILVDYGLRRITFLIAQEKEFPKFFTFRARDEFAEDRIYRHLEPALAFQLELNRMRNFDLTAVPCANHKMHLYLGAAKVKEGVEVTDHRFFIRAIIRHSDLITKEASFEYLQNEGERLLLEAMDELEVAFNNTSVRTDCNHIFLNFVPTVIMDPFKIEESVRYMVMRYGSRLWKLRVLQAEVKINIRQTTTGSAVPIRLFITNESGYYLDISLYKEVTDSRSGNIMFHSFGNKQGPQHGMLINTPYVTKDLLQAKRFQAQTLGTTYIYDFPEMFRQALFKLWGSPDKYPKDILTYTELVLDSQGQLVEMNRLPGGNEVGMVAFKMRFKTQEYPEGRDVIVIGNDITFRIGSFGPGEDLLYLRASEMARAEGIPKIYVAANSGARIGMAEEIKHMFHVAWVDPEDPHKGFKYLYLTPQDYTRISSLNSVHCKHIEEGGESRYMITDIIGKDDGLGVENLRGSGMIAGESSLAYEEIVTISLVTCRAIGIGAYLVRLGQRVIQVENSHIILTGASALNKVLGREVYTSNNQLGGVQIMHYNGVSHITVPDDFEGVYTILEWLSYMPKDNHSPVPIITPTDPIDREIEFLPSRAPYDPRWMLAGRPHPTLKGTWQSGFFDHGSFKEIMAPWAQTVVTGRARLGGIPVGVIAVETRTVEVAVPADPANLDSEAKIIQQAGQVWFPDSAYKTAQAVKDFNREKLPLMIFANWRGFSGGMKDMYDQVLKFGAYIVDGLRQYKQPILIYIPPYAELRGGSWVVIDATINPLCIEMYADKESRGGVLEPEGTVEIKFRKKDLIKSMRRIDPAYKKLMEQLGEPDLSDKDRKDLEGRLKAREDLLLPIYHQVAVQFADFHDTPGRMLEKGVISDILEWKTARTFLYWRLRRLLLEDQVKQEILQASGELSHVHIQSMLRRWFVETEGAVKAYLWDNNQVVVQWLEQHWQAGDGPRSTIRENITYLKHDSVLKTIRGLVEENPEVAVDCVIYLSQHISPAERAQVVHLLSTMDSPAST
For `COCCCN(C)c1ncc(F)c(N2CC[C@@H](Oc3ccc([C@H](C)NC(C)=O)cc3)C2)n1` [Example 8.167], inhibition was half-maximal at 101 nM (IC50). With `CC(=O)N[C@@H](C)c1ccc(O[C@@H]2CCN(c3nc(N4CCC(C)C4)ncc3Cl)C2)cc1` (stereo partly drawn) [Example 8.142] the figure was 138 nM; with `CCC(=O)Nc1nc(C)c(C(=O)N[C@@H](C)c2ccc(O[C@@H]3CCN(c4ncnc(NCC(F)F)c4Cl)C3)cc2)s1` [Example 8.315], 552 nM.

Take `CC(=O)N[C@@H](C)c1ccc(O[C@@H]2CCN(c3nc(OCC4CC4(F)F)ncc3F)C2)cc1` (stereo partly drawn) [Example 7.67]: the half-maximal inhibitory concentration (IC50) (commonly the concentration that gives 50% inhibition) is 789 nM. With `CC(=O)N[C@@H](C)c1ccc(O[C@@H]2CCN(c3ncnc(N4CCC(C)(O)C4)c3F)C2)cc1` (stereo partly drawn) [Example 8.269] the figure was 188 nM; with `CCN(C)c1ncnc(N2CC[C@@H](Oc3ccc([C@H](C)NC(C)=O)cc3)C2)c1C` [Example 8.101], 376 nM.

Compound `CC(=O)N[C@@H](C)c1ccc(O[C@@H]2CCN(c3nc(N(C)C4CCCOC4)ncc3F)C2)cc1` (stereo partly drawn) [Example 8.166] gave an IC50 of 105 nM. As for `CC(=O)N[C@@H](C)c1ccc(O[C@@H]2CCN(c3ccnc(OC4CCC4)n3)C2)cc1` [Example 7.7], the figure is 884 nM; as for `CCCNc1ncnc(N2CC[C@@H](Oc3ccc([C@H](C)NC(C)=O)cc3)C2)c1Cl` [Example 8.298], 156 nM; as for `CNC(=O)N[C@@H](C)c1ccc(OC2CCN(c3ncnc(OCC4CC4)c3F)C2)cc1` (stereo partly drawn) [Example 3.11], 110 nM. As for `CC(=O)N[C@@H](C)c1ccc(O[C@@H]2CCN(c3nc(N(C)C4CCCC4)ncc3F)C2)cc1` [Example 8.11], the figure is 58 nM. As for `CC(=O)N[C@@H](C)c1ccc(O[C@@H]2CCN(c3ccnc(N(C)C4CCC4)n3)C2)cc1` [Example 8.253], the figure is 79 nM; as for `CCN(C)c1nccc(N2CCC(Oc3ccc([C@H](C)NC(=O)N(C)C)cc3)C2)n1` (stereo partly drawn) [Example 3.9], 117 nM. With `CC(=O)N[C@@H](C)c1ccc(O[C@@H]2CCN(c3ncnc(OCC(F)F)c3F)C2)cc1` [Example 7.30], half-maximal inhibition (IC50) required 153 nM. The IC50 values of the last two compounds are within 1.5-fold of each other. With `CC(=O)N[C@@H](C)c1ccc(O[C@@H]2CCN(c3ncnc(N4C[C@@H]5C[C@H]4CO5)c3F)C2)cc1` [Example 8.147] the figure was 2320 nM; with `CC(=O)N[C@@H](C)c1ccc(O[C@@H]2CCN(c3ccnc(N4CCC(F)(F)C4)n3)C2)cc1` [Example 8.43], 79 nM; with `CC(=O)N[C@@H](C)c1ccc(O[C@@H]2CCN(c3ncnc(N4CCC(F)(F)CC4)c3F)C2)cc1` [Example 8.251], 97 nM. As for `CCN(CCC#N)c1ncnc(N2CC[C@@H](Oc3ccc([C@H](C)NC(C)=O)cc3)C2)c1Cl` [Example 8.116], the figure is 470 nM; as for `CC(=O)N[C@@H](C)c1ccc(O[C@@H]2CCN(c3ncnc(OCCCF)c3F)C2)cc1` [Example 7.31], 49 nM. As for `CC(=O)N[C@@H](C)c1ccc(O[C@@H]2CCN(c3ncnc(OC(C)C)c3Cl)C2)cc1` [Example 7.52], the figure is 105 nM; as for `COCC(=O)Nc1nc(C)c(C(=O)N[C@@H](C)c2ccc(OC3CCN(c4ccnc(N(C)CC(F)F)n4)C3)cc2)s1` (stereo partly drawn) [Example 2.11], 115 nM; as for `CC(=O)N[C@@H](C)c1ccc(O[C@@H]2CCN(c3nc(NCC(F)F)ncc3F)C2)cc1` [Example 8.304], 510 nM. With `COC1CCN(c2ncnc(N3CC[C@@H](Oc4ccc([C@H](C)NC(C)=O)cc4)C3)c2F)CC1` [Example 8.213], half-maximal inhibition (IC50) was put at 360 nM. This IC50 and that of the compound before are within 1.5-fold of each other. With `CC(=O)N[C@@H](C)c1ccc(O[C@@H]2CCN(c3ccnc(N(C)CC4CC4)n3)C2)cc1` [Example 8.3] the figure was 125 nM. As for `C[C@H](NC(=O)c1cn[nH]c1)c1ccc(OC2CCN(c3ccnc(N4CCOCC4)n3)C2)cc1` (stereo partly drawn) [Example 2.7], the figure is 455 nM; as for `CC(=O)N[C@@H](C)c1ccc(O[C@@H]2CCN(c3ccnc(N4CCC4)n3)C2)cc1` [Example 8.40], 628 nM. The compound `CC(=O)N[C@@H](C)c1ccc(O[C@@H]2CCN(c3nc(N(C)C4CC4)ncc3Cl)C2)cc1` [Example 8.145] returned an IC50 of 93 nM. This IC50 is about 6.8-fold lower than that of the compound before. With `CC(=O)N[C@@H](C)c1ccc(O[C@@H]2CCN(c3ncnc(N4CC[C@H](C)C4)c3Cl)C2)cc1` [Example 8.310] the figure was 52 nM; with `CC(=O)N[C@@H](C)c1ccc(O[C@@H]2CCN(c3ccnc(N4CCOCC4(C)C)n3)C2)cc1` [Example 8.86], 670 nM; with `COC(=O)N[C@@H](C)c1ccc(O[C@@H]2CCN(c3ccnc(N(C)CC(F)F)n3)C2)cc1` [Example 4.1, Methyl (S)-1-(4-((R)-1-(2-((2,2-difluoroethyl)(methyl)amino)pyrimidin-4-yl)pyrrolidin-3-yloxy)phenyl)ethylcarbamate], 65 nM. With `CCC(=O)Nc1nc(C)c(C(=O)N[C@@H](C)c2ccc(O[C@@H]3CCN(c4ncnc(OCC(C)(C)O)c4F)C3)cc2)s1` [Example 7.65] the figure was 650 nM; with `COC[C@@H]1CCCN1c1ncc(F)c(N2CC[C@@H](Oc3ccc([C@H](C)NC(C)=O)cc3)C2)n1` [Example 8.262], 129 nM; with `CC(=O)N[C@@H](C)c1ccc(O[C@@H]2CCN(c3nc(N(C)C)ncc3F)C2)cc1` [Example 8.1, N—((S)-1-(4-((R)-1-(2-(dimethylamino)-5-fluoropyrimidin-4-yl)pyrrolidin-3-yloxy)phenyl)ethyl)acetamide], 55 nM. With `COC[C@H]1CCCN1c1nccc(N2CC[C@@H](Oc3ccc([C@H](C)NC(C)=O)cc3)C2)n1` [Example 8.228] the figure was 619 nM; with `CC(=O)N[C@@H](C)c1ccc(O[C@@H]2CCN(c3nc(N(C)CC(C)(C)O)ncc3F)C2)cc1` [Example 8.28], 809 nM. In turn, `CC(=O)N[C@@H](C)c1ccc(O[C@@H]2CCN(c3ncnc(N4CCC(C)(C)C4)c3F)C2)cc1` [Example 8.199] yielded an IC50 of 85 nM. `CC(=O)N[C@@H](C)c1ccc(O[C@@H]2CCN(c3cc(OCC4CC4)ncn3)C2)cc1` [Example 7.3]: it took 375 nM to reach half-maximal inhibition (IC50).

Compound `COCC(=O)N[C@@H]1CC[C@H](C(=O)N[C@@H](C)c2ccc(O[C@@H]3CCN(c4ncnc(OCC5CC5)c4F)C3)cc2)C1` [Example 10.2] gave a half-inhibitory concentration (IC50) of 174 nM. As for `CCN(CCO)c1ncc(Cl)c(N2CC[C@@H](Oc3ccc([C@H](C)NC(C)=O)cc3)C2)n1` [Example 8.178], the figure is 389 nM. `CC(=O)N[C@@H](C)c1ccc(O[C@@H]2CCN(c3ccnc(N(C)CC(F)(F)F)n3)C2)cc1` [Example 8.46]: the midpoint of inhibition, the IC50, lay at 89 nM. Against the preceding compound, the IC50 is about 4.4-fold lower. As for `CC(=O)N[C@@H](C)c1ccc(O[C@@H]2CCN(c3cc(OCC4CC4(F)F)ncn3)C2)cc1` (stereo partly drawn) [Example 7.5], the figure is 842 nM; as for `CC(=O)N[C@@H](C)c1ccc(O[C@@H]2CCN(c3nc(N4CCCC4(C)C)ncc3Cl)C2)cc1` [Example 8.152], 215 nM. As for `CC(=O)N[C@@H](C)c1ccc(O[C@@H]2CCN(c3ccnc(N(CCC#N)CC4CCCO4)n3)C2)cc1` (stereo partly drawn) [Example 8.110], the figure is 234 nM; as for `Cc1oncc1C(=O)N[C@@H](C)c1ccc(OC2CCN(c3ccnc(N(C)CC(F)F)n3)C2)cc1` (stereo partly drawn) [Example 2.12], 90 nM. With `C[C@H](NC(=O)N1CCOCC1)c1ccc(OC2CCN(c3ccnc(N4CCOCC4)n3)C2)cc1` (stereo partly drawn) [Example 3.6] the figure was 605 nM.
